target: T1, recombinant His-tag Y220C p53 DBD protein (Homo sapiens, UniProt P04637, Y220C); assay: In vitro DNA binding activity assay (TR-FRET): binding of His-tag Y220C p53 DBD to biotin-labeled consensus DNA; format: biochemical; conditions: SC150 = concentration to increase DNA binding by […], His-tag Y220C p53 DBD, biotin-labeled consensus DNA
T1 construct: recombinant His-tag Y220C p53 DBD protein (amino acids #˜94-312)

SMILES | Y220C SC150 (μM)
CN1CC[C@@H](Nc2cccc3c2cc(-c2noc(CNc4nccc5c4ccn5C)n2)n3CC(F)(F)F)[C@@H](F)C1 [Compound 454B, N-[(3S,4R)-3-fluoro-1-methylpiperidin-4-yl]-2-{5-[({1-methyl-1H-pyrrolo[3,2-c]pyridin-4-yl}amino)methyl]-1,2,4-oxadiazol-3-yl}-1-(2,2,2-trifluoroethyl)-1H-indol-4-amine] | * (* = 0 μM ≤ SC150 < 0.1 μM)
CO[C@@]1(C)CC[C@H](n2ccc(C(=O)NCc3nc(-c4cc5c(N[C@@H]6CCN(C)C[C@@H]6F)cccc5n4CC(F)(F)F)no3)c2)C1 (racemic) [Compound 388B] | * (* = 0 μM ≤ SC150 < 0.1 μM)
Cn1ccc(C(=O)NCc2nc(-c3cc4c(N[C@@H]5CCN(C(C)(C)C)C[C@@H]5F)cccc4n3CC(F)(F)F)no2)c1 [Compound 397B, N-{[3-(4-{[(3S,4R)-1-tert-butyl-3-fluoropiperidin-4-yl]amino}-1-(2,2,2-trifluoroethyl)-1H-indol-2-yl)-1,2,4-oxadiazol-5-yl]methyl}-1-methyl-1H-pyrrole-3-carboxamide] | * (* = 0 μM ≤ SC150 < 0.1 μM)
CC(C)N1CC[C@@H](Nc2cccc3c2cc(-c2noc(CNC(=O)c4cnn(C(C)(C)C)c4)n2)n3CC(F)(F)F)[C@@H](F)C1 [Compound 316B, 1-tert-butyl-N-{[3-(4-{[(3S,4R)-3-fluoro-1-(propan-2-yl)piperidin-4-yl]amino}-1-(2,2,2-trifluoroethyl)-1H-indol-2-yl)-1,2,4-oxadiazol-5-yl]methyl}-1H-pyrazole-4-carboxamide] | * (* = 0 μM ≤ SC150 < 0.1 μM)
CN1CCC(Nc2cccc3c2cc(-c2nc(CNC(=O)c4ccccc4)no2)n3CC(F)(F)F)CC1 [Compound 138B, N-[(5-{4-[(1-methylpiperidin-4-yl)amino]-1-(2,2,2-trifluoroethyl)-1H-indol-2-yl}-1,2,4-oxadiazol-3-yl)methyl]benzamide] | ** (** = 0.1 μM ≤ SC150 < 0.5 μM)
CN1CCC(Nc2cccc3c2cc(-c2noc(CNC(=O)c4cccs4)n2)n3CC(F)(F)F)CC1 [Compound 143B, N-[(3-{4-[(1-methylpiperidin-4-yl)amino]-1-(2,2,2-trifluoroethyl)-1H-indol-2-yl}-1,2,4-oxadiazol-5-yl)methyl]thiophene-2-carboxamide] | * (* = 0 μM ≤ SC150 < 0.1 μM)
CN1CC[C@@H](Nc2cccc3c2cc(-c2noc(CNC(=O)c4cn(CCF)cn4)n2)n3CC(F)(F)F)[C@@H](F)C1 [Compound 306B, N-{[3-(4-{[(3S,4R)-3-fluoro-1-methylpiperidin-4-yl]amino}-1-(2,2,2-trifluoroethyl)-1H-indol-2-yl)-1,2,4-oxadiazol-5-yl]methyl}-1-(2-fluoroethyl)-1H-imidazole-4-carboxamide] | * (* = 0 μM ≤ SC150 < 0.1 μM)
CN1CCC(Nc2cccc3c2cc(-c2nnc(CNC(=O)C4CC4)o2)n3CC(F)(F)F)CC1 [Compound 110B, N-[(5-{4-[(1-methylpiperidin-4-yl)amino]-1-(2,2,2-trifluoroethyl)-1H-indol-2-yl}-1,3,4-oxadiazol-2-yl)methyl]cyclopropanecarboxamide] | *** (*** = 0.5 μM ≤ SC150 < 1 μM)
CC(C)c1cc(C(=O)NCc2nc(-c3cc4c(N[C@@H]5CCN(C)C[C@@H]5F)cccc4n3CC(F)(F)F)no2)co1 [Compound 526B, N-{[3-(4-{[(3S,4R)-3-fluoro-1-methylpiperidin-4-yl]amino}-1-(2,2,2-trifluoroethyl)-1H-indol-2-yl)-1,2,4-oxadiazol-5-yl]methyl}-5-(propan-2-yl)furan-3-carboxamide] | * (* = 0 μM ≤ SC150 < 0.1 μM)
CC(C)(C)n1ccc(C(=O)NCc2nc(-c3cc4c(N[C@H]5CC[C@H](F)CC5)cccc4n3CC(F)(F)F)no2)c1 [Compound 354B, 1-tert-butyl-N-{[3-(4-{[(1r,4r)-4-fluorocyclohexyl]amino}-1-(2,2,2-trifluoroethyl)-1H-indol-2-yl)-1,2,4-oxadiazol-5-yl]methyl}-1H-pyrrole-3-carboxamide] | * (* = 0 μM ≤ SC150 < 0.1 μM)
CO[C@]1(C)CC[C@H](n2ccc(C(=O)NCc3nc(-c4cc5c(N[C@@H]6CCN(C)C[C@@H]6F)cccc5n4CC(F)(F)F)no3)c2)C1 (racemic) [Compound 387B, cis-N-{[3-(4-{[(3S,4R)-3-fluoro-1-methylpiperidin-4-yl]amino}-1-(2,2,2-trifluoroethyl)-1H-indol-2-yl)-1,2,4-oxadiazol-5-yl]methyl}-1-[(1R,3S)-3-methoxy-3-methylcyclopentyl]-1H-pyrrole-3-carboxamide] | * (* = 0 μM ≤ SC150 < 0.1 μM)
CN1CC[C@H](Nc2cccc3c2cc(-c2nnc(CNc4cccc(S(C)(=O)=O)c4)o2)n3CC(F)(F)F)[C@H](F)C1 (racemic) [Compound 122B, (+/−)-N-[(3R,4S)-3-fluoro-1-methylpiperidin-4-yl]-2-(5-{[(3-methanesulfonylphenyl)amino]methyl}-1,3,4-oxadiazol-2-yl)-1-(2,2,2-trifluoroethyl)-1H-indol-4-amine] | ** (** = 0.1 μM ≤ SC150 < 0.5 μM)
CCN1CC[C@@H](Nc2cccc3c2cc(-c2noc(CNC(=O)c4ccn(CCF)c4)n2)n3CC(F)(F)F)[C@@H](F)C1 [Compound 293B, N-{[3-(4-{[(3S,4R)-1-ethyl-3-fluoropiperidin-4-yl]amino}-1-(2,2,2-trifluoroethyl)-1H-indol-2-yl)-1,2,4-oxadiazol-5-yl]methyl}-1-(2-fluoroethyl)-1H-pyrrole-3-carboxamide] | * (* = 0 μM ≤ SC150 < 0.1 μM)
Cc1nn(C(C)C)cc1C(=O)NCc1nc(-c2cc3c(N[C@@H]4CCN(C)C[C@@H]4F)cccc3n2CC(F)(F)F)no1 [Compound 311B, N-{[3-(4-{[(3S,4R)-3-fluoro-1-methylpiperidin-4-yl]amino}-1-(2,2,2-trifluoroethyl)-1H-indol-2-yl)-1,2,4-oxadiazol-5-yl]methyl}-3-methyl-1-(propan-2-yl)-1H-pyrazole-4-carboxamide] | * (* = 0 μM ≤ SC150 < 0.1 μM)
CN1CCC(n2cc(C(=O)NCc3nc(-c4cc5c(N[C@@H]6CCN(C)C[C@@H]6F)cccc5n4CC(F)(F)F)no3)cn2)C1 (stereo partly drawn) [Compound 349B, N-{[3-(4-{1[(3S,4R)-3-fluoro-1-methylpiperidin-4-yl]amino}-1-(2,2,2-trifluoroethyl)-1H-indol-2-yl)-1,2,4-oxadiazol-5-yl]methyl}-1-(1-methylpyrrolidin-3-yl)-1H-pyrazole-4-carboxamide] | * (* = 0 μM ≤ SC150 < 0.1 μM)
CN1CC[C@@H](Nc2cccc3c2cc(-c2noc(CNC(=O)c4cnn(C5CCC5)c4)n2)n3CC(F)(F)F)[C@@H](F)C1 [Compound 369B, 1-cyclobutyl-N-{[3-(4-{1[(3S,4R)-3-fluoro-1-methylpiperidin-4-yl]amino}-1-(2,2,2-trifluoroethyl)-1H-indol-2-yl)-1,2,4-oxadiazol-5-yl]methyl}-1H-pyrazole-4-carboxamide] | * (* = 0 μM ≤ SC150 < 0.1 μM)
CN1CC[C@@H](Nc2cccc3c2cc(-c2noc(CNc4nccc5ccsc45)n2)n3CC(F)(F)F)[C@@H](F)C1 [Compound 445B, N-[(3S,4R)-3-fluoro-1-methylpiperidin-4-yl]-2-{5-[({thieno[2,3-c]pyridin-7-yl}amino)methyl]-1,2,4-oxadiazol-3-yl}-1-(2,2,2-trifluoroethyl)-1H-indol-4-amine] | * (* = 0 μM ≤ SC150 < 0.1 μM)
CN1CC[C@H](Nc2cccc3c2cc(-c2nnc(CNC(=O)C4CCCC4)s2)n3CC(F)(F)F)[C@H](F)C1 (racemic) [Compound 29B, (+/−)-N-{[5-(4-{[(3R,4S)-3-fluoro-1-methylpiperidin-4-yl]amino}-1-(2,2,2-trifluoroethyl)-1H-indol-2-yl)-1,3,4-thiadiazol-2-yl]methyl}cyclopentanecarboxamide] | ** (** = 0.1 μM ≤ SC150 < 0.5 μM)
CN1CC[C@@H](Nc2cccc3c2cc(-c2noc(CNC(=O)c4ccc(C(C)(C)C)s4)n2)n3CC(F)(F)F)[C@@H](F)C1 [Compound 422B, 5-tert-butyl-N-[[3-[4-[[(3S,4R)-3-fluoro-1-methyl-4-piperidyl]amino]-1-(2,2,2-trifluoroethyl)indol-2-yl]-1,2,4-oxadiazol-5-yl]methyl]thiophene-2-carboxamide] | * (* = 0 μM ≤ SC150 < 0.1 μM)
CC(C)n1cncc1C(=O)NCc1nc(-c2cc3c(N[C@@H]4CCN(C)C[C@@H]4F)cccc3n2CC(F)(F)F)no1 [Compound 257B, N-{[3-(4-{[(3S,4R)-3-fluoro-1-methylpiperidin-4-yl]amino}-1-(2,2,2-trifluoroethyl)-1H-indol-2-yl)-1,2,4-oxadiazol-5-yl]methyl}-1-(propan-2-yl)-1H-imidazole-5-carboxamide] | * (* = 0 μM ≤ SC150 < 0.1 μM)
COCC(C)(C)n1cc(C(=O)NCc2nc(-c3cc4c(N[C@@H]5CCN(C(C)(C)C)C[C@@H]5F)cccc4n3CC(F)(F)F)no2)cn1 [Compound 412B, N-{[3-(4-{[(3S,4R)-1-tert-butyl-3-fluoropiperidin-4-yl]amino}-1-(2,2,2-trifluoroethyl)-1H-indol-2-yl)-1,2,4-oxadiazol-5-yl]methyl}-1-(1-methoxy-2-methylpropan-2-yl)-1H-pyrazole-4-carboxamide] | * (* = 0 μM ≤ SC150 < 0.1 μM)

same assay, conditions: concentration to increase DNA binding by […], incubated at either 27° C. or 29° C. for 60 min

SMILES | SC150 (μM)
N#Cc1ccc(C(=O)NCc2ccc(-c3cc4c(NC5CCS(=O)(=O)CC5)cccc4n3CC(F)(F)F)cc2)cc1 [Compound 16A, 4-cyano-N-[(4-{4-[(1,1-dioxo-1λ^6-thian-4-yl)amino]-1-(2,2,2-trifluoroethyl)-1H-indol-2-yl}phenyl)methyl]benzamide] | ++ (++ = 2 μM ≤ SC150 < 5 μM)
